Data as given in paper PMC10743086, “Immunofluorescence-Based Assay for High-Throughput Analysis of Multidrug Resistance Markers in Non-Small Cell Lung Carcinoma Patient-Derived Cells” (Diagnostics, 2023).

Experiments:
Assay type in all cases: cell-based, human
[1] = tested on: ABCC1 expression in cancer cells (CK8/18+); assay: Immunofluorescence assay of ABCC1 expression in patient-derived NSCLC cultures; details: 7 days
Procedure: (§1) Tissue samples were collected during surgery, and the NSCLC diagnosis, histological grade, stage, necrosis, and lymph node invasion status were determined by histopathological analysis. […] The surgical specimens were placed in a sterile tube containing antibiotic-antimycotic solution (Sigma-Aldrich Chemie GmbH, Taufkirchen, Germany) and immediately transported to the research laboratory for further processing.
(§2) Upon arrival, the tissue was manually chopped with a surgical blade in a Petri dish under sterile conditions. The samples were cut into 3–5 mm pieces and further dissociated using the Tumor Dissociation Kit (Miltenyi Biotec, Bergisch Gladbach, Germany). The Tumor Dissociation Kit was used to dissociate the cells from the tumor tissue according to the manufacturer’s instructions. The samples were incubated in a 37 °C orbital shaker (KS 4000 ic control, IKA, Königswinter, Germany) at 300 rpm for 90 min. After incubation, the dissociated tissue was placed in DMEM/Ham’s F12 (1:3 ratio) growth medium supplemented with 5% fetal bovine serum (Corning, NY, USA), antibiotic-antimycotic solution, 4 µg/mL hydrocortisone (Sigma-Aldrich Chemie GmbH, Taufkirchen, Germany), 1 µg/mL insulin (Sigma-Aldrich Chemie GmbH, Taufkirchen, Germany), 10 ng/mL epidermal growth factor (BioLegend, San Diego, CA, USA), and 24 µg/mL adenine (Sigma-Aldrich Chemie GmbH, Taufkirchen, Germany). The DMEM and Ham’s F12 growth media were purchased from Sigma-Aldrich Chemie GmbH (Taufkirchen, Germany).
(§3) The dissociated tissue was cultured in T-25 cell culture flasks until cell attachment was observed before the medium was replaced. If no cell attachment was achieved within 7 days, the sample was discarded. Successful patient-derived cultures were maintained at 37 °C in a humidified atmosphere with 5% CO2 and grown to confluence before undergoing further experiments. […] Partial trypsinization was performed by detaching the fibroblast-like cells with 1 mL of 0.05% trypsin for 1 min at 37 °C, followed by 2 min at room temperature (RT).
(§4) Vinorelbine and pemetrexed were purchased from Selleckchem (Houston, TX, USA). Carboplatin, cisplatin, docetaxel, etoposide, gemcitabine, gefitinib, and paclitaxel were purchased from Sigma-Aldrich Chemie GmbH (Taufkirchen, Germany). The cisplatin, carboplatin, and gemcitabine were dissolved in sterile water, while the etoposide, docetaxel, vinorelbine, paclitaxel, gefitinib, and pemetrexed were dissolved in DMSO and stored at −20 °C. Before treatment, all the stock solutions were freshly diluted in sterile water.
(§5) The primary cells were seeded in black, clear bottom 384-well cell culture microplates (Thermo Fisher Scientific, Waltham, MA, USA) in 50 µL of cell growth medium at a density of 1000 cells per well. The compounds were administered 72 h after seeding. The treatment lasted 7 days.
(§6) The immunofluorescence assay for the quantification of MDR markers was optimized to distinguish cancer cells from stromal cells using a cytokeratin 8/18 (CK8/18) antibody cocktail. The cells were fixed with 4% paraformaldehyde for 20 min at RT and washed three times with PBS using the Wellwash Versa microplate washer (Thermo Fisher Scientific, Waltham, MA, USA). The cells were then blocked with 2% bovine serum albumin (BSA) in PBS for 1 h at RT. […] Co-immunostaining with antibodies against MDR markers was performed to detect the presence of ABCB1, ABCC1, and ABCG2 in both the cancer and stromal cells. […] The secondary antibodies were incubated with the cells at RT for 2 h in the dark. […] Finally, the cells were washed three times with PBS and stored at 4 °C in the dark before imaging.

NCI-H460 cells = assay: Cytotoxicity by immunofluorescence cell scoring (cell counts), NSCLC cell line; details: Homo sapiens, NCI-H460, 24 h, 24 h treatment
Procedure: as §4
(§7) The compounds were administered 48 h after seeding. The treatment lasted 24 h.
as §6
(§8) The fluorescently labeled cells were imaged using the ImageXpress Pico Automated Cell Imaging System (Molecular Devices, San Jose, CA, USA) with a 4x objective after determining the appropriate exposure time for each illumination filter. Analysis of the obtained images was performed using CellReporterXpress software v. 2.8.2.669 (Molecular Devices). The cytotoxicity of the compounds was determined using the Cell Scoring Analysis Protocol. […] Expression of MDR markers was determined using the Multi-Wavelength Cell Scoring Analysis Protocol.

[2] = tested on: ABCB1 expression in cancer cells (CK8/18+); assay: Immunofluorescence assay of ABCB1 expression in patient-derived NSCLC cultures; details: 7 days
Procedure: as §1, §2, §3, §4, §5, §6

[3] = tested on: ABCB1 expression in NCI-H460 cells; assay: Immunofluorescence assay of MDR marker ABCB1 expression; details: five concentrations, 24 h
Procedure: as §4, §7, §6, §8

[4] = tested on: ABCB1 expression in NCI-H460/R cells; assay: as above; details: five concentrations, 24 h
Procedure: as §4, §7, §6, §8

[5] = tested on: ABCB1 expression in MRC-5 cells; assay: as above; details: five concentrations, 24 h
Procedure: as §4, §7, §6, §8

NCI-H460/R cells = assay: Cytotoxicity by immunofluorescence cell scoring (cell counts), multidrug-resistant NSCLC cell line; details: Homo sapiens, 24 h treatment
Source text: Human non-small cell lung carcinoma cells (NCI-H460) were purchased from the American Type Culture Collection (Rockville, MD, USA), and normal embryonic lung fibroblasts (MRC-5) were purchased from the European Collection of Authenticated Cell Cultures (Salisbury, UK). Multidrug-resistant NCI-H460/R cells overexpressing ABCB1 were selected from the NCI-H460 cells after selective pressure with doxorubicin [21]. All the cell lines were maintained in MEM medium (Sigma-Aldrich Chemie GmbH, Taufkirchen, Germany) supplemented with 10% FBS, 2 mM L-glutamine, and antibiotic-antimycotic solution. All the cell lines were maintained at 37 °C in a humidified atmosphere with 5% CO2.
as §4, §7, §6, §8

MRC-5 cells = assay: Cytotoxicity by immunofluorescence cell scoring (cell counts), normal fibroblasts; details: Homo sapiens, 24 h treatment
Procedure: as §4, §7, §6, §8

[6] = tested on: Cancer cells (CK8/18+) of patient-derived NSCLC cultures; assay: Cytotoxicity in patient-derived NSCLC cultures, cancer cells; details: Homo sapiens, 168 h, 7 days treatment
Procedure: as §1, §2, §3, §4, §5, §6

[7] = culture TR58, cancer cells (CK8/18+)
[8] = culture TR64, cancer cells (CK8/18+)
[9] = culture TR65, cancer cells (CK8/18+)
[10] = culture TR84, cancer cells (CK8/18+)
[11] = culture TR87, cancer cells (CK8/18+)
[12] = NCI-H460 (co-culture with MRC-5)
[13] = NCI-H460/R (co-culture with MRC-5)
[14] = MRC-5 (co-culture with NCI-H460)
[15] = MRC-5 (co-culture with NCI-H460/R)
[16] = MRC5, 24 h, MRC-5 (co-culture with NCI-H460)

Row | SMILES | ABCC1 expression [1, 7] | ABCC1 expression [1, 8] | ABCC1 expression [1, 9] | ABCC1 expression [1, 10] | ABCC1 expression [1, 11] | IC50 (NCI-H460 cells; [12]) [µM] | IC50 (NCI-H460 cells; NCI-H460 monoculture) [µM] | ABCB1 Expression [2, 7] | ABCB1 Expression [2, 8] | ABCB1 Expression [2, 9] | ABCB1 Expression [2, 10] | ABCB1 Expression [2, 11] | ABCB1 Expression [3, 12] | ABCB1 Expression ([3]; NCI-H460 monoculture) | ABCB1 Expression [4, 13] | ABCB1 Expression ([4]; NCI-H460/R monoculture) | ABCB1 Expression [5, 14] | ABCB1 Expression [5, 15] | ABCB1 Expression ([5]; MRC-5 monoculture) | IC50 (NCI-H460/R cells; [13]) [µM] | other results
1 | CC(=O)O[C@@]12CO[C@@H]1C[C@H](O)[C@@]1(C)C(=O)[C@H](O)C3=C(C)[C@@H](OC(=O)[C@H](O)[C@@H](NC(=O)OC(C)(C)C)c4ccccc4)C[C@@](O)([C@@H](OC(=O)c4ccccc4)[C@H]21)C3(C)C [Docetaxel, docetaxel] | no change | increase (An increase in ABCB1, ABCC1, or ABCG2 expression of at least 20% at a minimum of one concentration is shown in the table.) | increase (An increase in ABCB1, ABCC1, or ABCG2 expression of at least 20% at a minimum of one concentration is shown in the table.) | increase (An increase in ABCB1, ABCC1, or ABCG2 expression of at least 20% at a minimum of one concentration is shown in the table.) | increase (An increase in ABCB1, ABCC1, or ABCG2 expression of at least 20% at a minimum of one concentration is shown in the table.) | 0.642 | 0.554 | no change | increase (An increase in ABCB1, ABCC1, or ABCG2 expression of at least 20% at a minimum of one concentration is shown in the table.) | no change | increase (An increase in ABCB1, ABCC1, or ABCG2 expression of at least 20% at a minimum of one concentration is shown in the table.) | increase (An increase in ABCB1, ABCC1, or ABCG2 expression of at least 20% at a minimum of one concentration is shown in the table.) | increase (An increase in ABCB1 expression of at least 20% at a minimum of one concentration is shown in the table.) | increase (An increase in ABCB1 expression of at least 20% at a minimum of one concentration is shown in the table.) | no change | no change | no change | no change | no change | 0.801 | IC50 (NCI-H460/R cells; NCI-H460/R monoculture): 0.704 µM; IC50 (MRC-5 cells; [16]): > 5 µM; IC50 (MRC-5 cells; MRC5, 24 h, MRC-5 monoculture): > 5 µM; IC50 (MRC-5 cells; MRC5, MRC-5 (co-culture with NCI-H460/R)): > 5 µM; IC50 [6, 7]: 1.31 µM; IC50 [6, 8]: 1.56 µM; IC50 [6, 9]: > 5 µM; IC50 [6, 10]: 1.85 µM; IC50 [6, 11]: > 5 µM
2 | COc1cc([C@@H]2c3cc4c(cc3[C@@H](O[C@@H]3O[C@@H]5CO[C@@H](C)O[C@H]5[C@H](O)[C@H]3O)[C@H]3COC(=O)[C@H]23)OCO4)cc(OC)c1O [Etoposide, etoposide] | no change | increase (An increase in ABCB1, ABCC1, or ABCG2 expression of at least 20% at a minimum of one concentration is shown in the table.) | increase (An increase in ABCB1, ABCC1, or ABCG2 expression of at least 20% at a minimum of one concentration is shown in the table.) | increase (An increase in ABCB1, ABCC1, or ABCG2 expression of at least 20% at a minimum of one concentration is shown in the table.) | increase (An increase in ABCB1, ABCC1, or ABCG2 expression of at least 20% at a minimum of one concentration is shown in the table.) | 6.07 | 4.81 | no change | increase (An increase in ABCB1, ABCC1, or ABCG2 expression of at least 20% at a minimum of one concentration is shown in the table.) | increase (An increase in ABCB1, ABCC1, or ABCG2 expression of at least 20% at a minimum of one concentration is shown in the table.) | increase (An increase in ABCB1, ABCC1, or ABCG2 expression of at least 20% at a minimum of one concentration is shown in the table.) | increase (An increase in ABCB1, ABCC1, or ABCG2 expression of at least 20% at a minimum of one concentration is shown in the table.) | increase (An increase in ABCB1 expression of at least 20% at a minimum of one concentration is shown in the table.) | increase (An increase in ABCB1 expression of at least 20% at a minimum of one concentration is shown in the table.) | no change | no change | no change | no change | no change | 7.5 | IC50 (NCI-H460/R cells; NCI-H460/R monoculture): 7.92 µM; IC50 (MRC-5 cells; [16]): > 30 µM; IC50 (MRC-5 cells; MRC5, 24 h, MRC-5 (co-culture with NCI-H460/R)): > 30 µM; IC50 (MRC-5 cells; MRC5, 24 h, MRC-5 monoculture): > 30 µM; IC50 [6, 7]: 7.13 µM; IC50 [6, 8]: 11.9 µM; IC50 [6, 9]: 25.4 µM; IC50 [6, 10]: 2.98 µM; IC50 [6, 11]: 13 µM
